Read-outs that look alike come from different tables or passages of the source.
How the values were obtained:
[1] = Incubations with pooled human liver S9 fraction (pHLS9), metabolite identification by LC-HRMS/MS; type: in vitro ADME; settings: human data for ephylone and 4F-PHP from Wagmann et al., [2019b]
Experimental: According to published procedures (Richter et al., [2017b], [2019b]; Caspar et al., [2018b]; Wagmann et al., [2019b],[c]), the final incubation volume per reaction tube was 150 μl, with a final protein concentration of 2 mg/ml. The given concentrations represent final concentrations. A preincubation for 10 min at 37°C with UGT reaction mixture solution B (containing alamethicin, 25 μg/ml), MgCl2 (2.5 mM), NADP^+ (0.6 mM), isocitrate (2.5 mM), isocitrate dehydrogenase (0.8 U/ml), superoxide dismutase (100 U/ml), acetyl coenzyme A (0.1 mM), phosphate buffer (90 mM, pH 7.4), and pHLS9 (2 mg/ml) was done. Afterwards, UGT reaction mixture solution A (containing UDP glucuronic acid, 2.5 mM), PAPS (40 μM), SAM (1.2 mM), dithiothreitol (1 mM), and glutathione (10 mM) were added, as well as 25 μM 4F-MDMB-BINACA to start the reactions. The mixture was incubated for 360 min. Total amount of organic solvent in incubation mixtures was <2% (Chauret et al., [1998]). After 60 min, an aliquot of the reaction mixture (60 μl) was transferred in another reaction tube containing 20 μl of ice-cold acetonitrile to terminate the reactions. The remaining aliquot (90 μl) was incubated for an additional 300 min, and then the reactions were stopped by adding 30 μl of ice-cold acetonitrile. Thereafter, the reaction tubes were cooled at −20°C for 30 min prior to centrifugation at 18,407 × g for 2 min. The supernatants (50 μl) were transferred into autosampler vials, and 1 μl was injected onto the LC-HRMS/MS system. Control samples without pHLS9 and blank samples without substrate were prepared to confirm the absence of non-metabolically formed and interfering compounds, respectively. All incubations were performed in duplicate.
According to a previous study (Richter et al., [2019a]), a Thermo Fisher Scientific (TF, Dreieich, Germany) Dionex UltiMate 3000 Rapid Separation (RS) UHPLC system with a quaternary UltiMate 3000 RS pump and an UltiMate 3000 RS autosampler controlled by the TF Chromeleon software version 6.8 was used. The LC system was coupled to an Orbitrap-based TF Q-Exactive Plus equipped with a heated electrospray ionization II (HESI-II) source. Calibration was done prior to analysis with a Positive Cal Mix (Supelco, Bellefonte, PA, USA) at a flow rate of 3 μl/min using a syringe pump. The conditions of the LC system were as follows: TF Accucore PhenylHexyl column (100 × 2.1 mm, 2.6 μm particle size); gradient elution with 2 mM ammonium formate solution containing 0.1% (v/v) formic acid (eluent A) and 2 mM ammonium formate solution in acetonitrile/methanol (50:50, v/v) containing 0.1% (v/v) formic acid, and 1% (v/v) water (eluent B). […] The following gradient was used: 0–1.0 min hold 1% B, 1–10 min to 99% B, 10–11.5 min hold 99% B, 11.5–13.5 min hold 1% B. The HESI-II source conditions were as follows: ionization mode, positive; heater temperature, 320°C; ion transfer capillary temperature, 320°C; sheath gas, 60 arbitrary units (AU); auxiliary gas, 10 AU; spray voltage, 4.00 kV; and S-lens RF level, 50.0. Mass spectrometry experiments were performed using high-resolution (HR) full scan mode and a targeted MS^2 mode with an inclusion list for each NPS. The inclusion list contained m/z values of metabolites, which were likely to be formed for example hydroxy, oxo, carboxy, dealkyl, demethylenylated, and defluorinated metabolites (phase I) as well as sulfates and glucuronides (phase II) and combinations of them. Full scan settings were as follows: resolution, 35,000; automatic gain control (AGC) target, 3e6; maximum injection time (IT), 120 ms; scan ranges, 3,4-DMA-NBOMe m/z 100–700, ephylone m/z 200–600, 4F-MDMB-BINACA m/z 150–700, 4F-PHP m/z 200–600, and 1P-LSD m/z 250–700. The settings for the targeted MS^2 mode with the respective inclusion lists were as follows: resolution, 17,500; AGC target, 2e5; maximum IT, 250 ms; loop count, 5; isolation window, 1.0 m/z; stepped normalized collision energy (NCE), 17.5, 35, 52.5%; pick others, enabled. […]

zebrafish larvae [2] = experiment: In vivo maximum-tolerated concentration (MTC) study in zebrafish larvae; parameters: species or system zebrafish (Danio rerio); settings: for Survival rate / Survival rates for all tested concentrations / Malformations: larvae 4 dpf; for Survival rate: 24-h treatment, fifteen larvae; for Survival rates for all tested concentrations: 0.01 to 100 μM; for Survival rates for all tested concentrations / Malformations: 24 h; for Concentration considered non-toxic for zebrafish larvae (4 dpf): 24 h exposure via medium; for Malformations: up to 100 μM
Experimental: Internal protocols based on published standard methods (Westerfield, [2007]) were used to perform zebrafish husbandry and the maximum-tolerated concentration (MTC) testing was based on a previous study (Richter et al., [2019a]). Danieau's medium [17 mM NaCl, 2 mM KCl, 0.12 mM MgSO4, 1.8 mM Ca(NO3)2, 1.5 mM HEPES, pH 7.1–7.3, and 1.2 μM methylene blue] at 28°C was used to raise zebrafish larvae of the AB wild-type strain. For MTC testing, 96-well plates were used with 100 μl of medium and one larva per well. Drug exposition was started 4 dpf using 0, 0.01, 0.1, 1, 10, 50, or 100 μM final concentrations of 3,4-DMA-NBOMe, ephylone, 4F-MDMB-BINACA, 4F-PHP, or 1P-LSD, respectively. The drug exposure in the incubator at 28°C lasted 24 h. The final DMSO concentration was 1% (v/v) for all experiments. Monitoring of the larvae was done using a LEICA M205 FA stereo microscope (Leica Mikrosysteme Vertrieb GmbH, Wetzlar, Germany) to detect developmental defects and/or decreased survival rates. Fifteen larvae were used for each experiment.

[3] = ref Wagmann et al., cited from earlier work; for Number of phase I metabolites detected, pHLS9 [25 μM] / Number of phase II metabolites detected, pHLS9 [25 μM]: [2019b]; for Detection in pHLS9 [25 µM]: n = 2, according to literature
zebrafish larvae [4] = experiment: Zebrafish larvae exposure, metabolite identification by LC-HRMS/MS; settings: for Number of phase I metabolites detected, Zebrafish larvae / Number of phase II metabolites detected, Zebrafish larvae: 100 μM in medium; for Number of phase I metabolites detected, Zebrafish larvae / Number of phase II metabolites detected, Zebrafish larvae / Absolute peak area, Zebrafish larvae [100 µM]: 24 h; for Absolute peak area, Zebrafish larvae [100 µM]: 100 µM parent NPS in medium, larvae 4 dpf, larvae extract, one replicate of n = 3, n.d. = not detected; for Relative number of matches with the four most abundant signals in human plasma, Zebrafish larvae / Relative number of matches with the four most abundant signals in human urine, Zebrafish larvae: larvae exposed to 100 μM, human data from Wagmann et al., [2019b]
[5] = cited from earlier work
HepaRG cells = experiment: Incubations with HepaRG cells, metabolite identification by LC-HRMS/MS; type: in vitro ADME, human; settings: for Absolute peak area, HepaRG [25 μM]: 25 μM parent NPS; for Absolute peak area, HepaRG [25 μM] / Number of phase I metabolites detected, HepaRG [25 μM] / Number of phase II metabolites detected, HepaRG [25 μM] / Absolute peak area, HepaRG [250 μM] / Number of phase I metabolites detected, HepaRG [250 μM] / Number of phase II metabolites detected, HepaRG [250 μM]: 24 h; for Absolute peak area, HepaRG [25 μM] / Absolute peak area, HepaRG [250 μM]: cell culture medium, one replicate of n = 3, n.d. = not detected; for Absolute peak area, HepaRG [250 μM]: 250 μM parent NPS; for Relative number of matches with the four most abundant signals in human plasma, HepaRG [25 μM] / Relative number of matches with the four most abundant signals in human plasma, HepaRG [250 μM] / Relative number of matches with the four most abundant signals in human urine, HepaRG [25 μM] / Relative number of matches with the four most abundant signals in human urine, HepaRG [250 μM]: human data for ephylone and 4F-PHP from Wagmann et al., [2019b]
monooxygenases = settings: initial monooxygenases activity screenings described elsewhere; ref Caspar et al., [2018a]; Wagmann et al., [2019b],[c]; cited from earlier work
[6] = after subcutaneous administration of 1P-LSD to rats; ref Halberstadt et al., [2019]; cited from earlier work

Structure (SMILES) | Relative number of matches with the four most abundant signals in human plasma, pHLS9 [25 μM] [1] [%] | Relative number of matches with the four most abundant signals in human urine, pHLS9 [25 μM] [1] [%] | Survival rate (zebrafish larvae [2]; 0.01 μM) [%] | Survival rate (zebrafish larvae [2]; 0.1 μM) [%] | Survival rate (zebrafish larvae [2]; 1 μM) [%] | Survival rate (zebrafish larvae [2]; 10 μM) [%] | Survival rate (zebrafish larvae [2]; 50 μM) [%] | Survival rate (zebrafish larvae [2]; 100 μM) [%] | Survival rates for all tested concentrations (zebrafish larvae [2]) [%] | Concentration considered non-toxic for zebrafish larvae (4 dpf) (zebrafish larvae [2]) [µM] | Malformations (zebrafish larvae [2]) | Number of phase I metabolites detected, pHLS9 [25 μM] [3] | Number of phase II metabolites detected, pHLS9 [25 μM] [3] | Number of phase I metabolites detected, Zebrafish larvae (zebrafish larvae [4]) | Number of phase II metabolites detected, Zebrafish larvae (zebrafish larvae [4]) | Absolute peak area, Zebrafish larvae [100 µM] (zebrafish larvae [4]) | Relative number of matches with the four most abundant signals in human plasma, Zebrafish larvae (zebrafish larvae [4]) [%] | Relative number of matches with the four most abundant signals in human urine, Zebrafish larvae (zebrafish larvae [4]) [%] | Absolute peak area, HepaRG [25 μM] (HepaRG cells) | Absolute peak area, HepaRG [250 μM] (HepaRG cells) | also measured
CCCC(NCC)C(=O)c1ccc2c(c1)OCO2 (stereo not shown) [Ephylone, N-ethylnorpentylone] | 100 | 100 | 100 | 100 | 100 | 100 | 100 | 100 | 100 | 100 | no malformations | 5 (Wagmann et al., [2019b]) | 8 (Wagmann et al., [2019b]) | 5 | 4 | 3.57E+09 | 100 | 100 | 6.38E+08 | 3.94E+09 | Detection in pHLS9 [25 µM] ([3]; ephylone and metabolites, 2019a): +; Signals with the highest abundance in human plasma and/or urine ([5]; human biosamples after intake of ephylone and 4F-PHP, ref Wagmann et al., [2019b]): highest ephylone-related signals; Number of phase I metabolites detected, HepaRG [25 μM] (HepaRG cells): 2; Number of phase II metabolites detected, HepaRG [25 μM] (HepaRG cells): 4; Number of phase I metabolites detected, HepaRG [250 μM] (HepaRG cells): 4; Number of phase II metabolites detected, HepaRG [250 μM] (HepaRG cells): 6; Relative number of matches with the four most abundant signals in human plasma, HepaRG [25 μM] (HepaRG cells): 75%; Relative number of matches with the four most abundant signals in human plasma, HepaRG [250 μM] (HepaRG cells): 100%; Relative number of matches with the four most abundant signals in human urine, HepaRG [25 μM] (HepaRG cells): 75%; Relative number of matches with the four most abundant signals in human urine, HepaRG [250 μM] (HepaRG cells): 100%; Monooxygenases involved in metabolism (monooxygenases): CYP1A2, CYP2B6, CYP2C19, and CYP3A4
CCN(CC)C(=O)[C@@H]1C=C2c3cccc4[nH]cc(c34)C[C@H]2N(C)C1 [ML7, LSD] |  |  |  |  |  |  |  |  |  |  |  |  |  |  |  | 1.25E+09 |  |  | 8.59E+08 | 5.95E+09 | Detection in pHLS9 [25 µM] ([3]; 1P-LSD and metabolites, 2019b): +; Detection in serum and urine samples of an intoxicated patient ([5]; after assumed consumption of a blotter containing 1P-LSD, ref Grumann et al., [2019]): able to find; Detection in rat plasma [6]: able to detect
CCCCC(C(=O)c1ccc(F)cc1)N1CCCC1 (stereo not drawn) [Metabolite 4F-PHP, 4-fluoro-alpha-pyrrolidinohexiophenone] | 75 | 75 | 100 | 100 | 100 | 100 | 100 | 100 | 100 | 100 | no malformations | 6 (Wagmann et al., [2019b]) | 2 (Wagmann et al., [2019b]) | 8 | 3 | 4.36E+09 | 100 | 75 | 6.65E+08 | 5.45E+09 | Detection in pHLS9 [25 µM] ([3]; 4F-PHP and metabolites, 2019a): +; Number of phase I metabolites detected, HepaRG [25 μM] (HepaRG cells): 5; Number of phase II metabolites detected, HepaRG [25 μM] (HepaRG cells): 0; Number of phase I metabolites detected, HepaRG [250 μM] (HepaRG cells): 6; Number of phase II metabolites detected, HepaRG [250 μM] (HepaRG cells): 1; Relative number of matches with the four most abundant signals in human plasma, HepaRG [25 μM] (HepaRG cells): 50%; Relative number of matches with the four most abundant signals in human plasma, HepaRG [250 μM] (HepaRG cells): 50%; Relative number of matches with the four most abundant signals in human urine, HepaRG [25 μM] (HepaRG cells): 25%; Relative number of matches with the four most abundant signals in human urine, HepaRG [250 μM] (HepaRG cells): 50%; Monooxygenases involved in metabolism (monooxygenases): CYP1A2, CYP2B6, CYP2C19, and CYP3A4
